1 compound from patent US11248234B2, “Herbicide-resistant hydroxyphenylpyruvate dioxygenases” (BASF SE, priority 2015, dated 2022) can be followed below.

The structures appear in SMILES notation.

Assay in all cases: Germination assay in 48-well plates (tolerance factor)
Common to all, as to format: in vivo, Arabidopsis thaliana
Common to all, as to conditions: plant growth IC50 transgenic / wildtype; mean of 5 T2 events; non-transgenic set to 1

For assay [1], the system named is Arabidopsis overexpression line SoHPPD (SEQ ID NO: 4). The method, then:
(§1) Tolerance to HPPD-inhibiting herbicides can also be assessed in Arabidopsis. In this case transgenic Arabidopsis thaliana plants are assayed for improved tolerance to HPPD-inhibiting herbicides in 48-well plates (germination assay). Seeds are surface sterilized by stirring for 5 min in ethanol+water (70+30 by volume), rinsing one time with ethanol+water (70+30 by volume) and two times with a sterile, deionized water. The seeds are resuspended in 0.1% agar dissolved in water (w/v). Four to five seeds per well are plated on solid nutrient medium consisting of half-strength Murashige Skoog nutrient solution, pH 5.8 (Murashige and Skoog (1962) Physiologia Plantarum 15: 473-497). Compounds are dissolved in dimethylsulfoxid (DMSO) and added to the medium prior solidification (final DMSO concentration 0.1%). Multi well plates are incubated in a growth chamber at 22° C., 75% relative humidity and 110 μmol Phot*m−2*s−1 with 14:10 h light:dark photoperiod. Growth inhibition is evaluated seven to ten days after seeding in comparison to wild type plants. Tolerance factor is calculated by dividing the plant growth IC50 value of transgenic plants containing a HPPD sequence by that of wildtype plants.

For assay [2], the system named is Arabidopsis overexpression line SoHPPD I419V (short). The method, then:
as §1

The test system of assay [3] is Arabidopsis overexpression line SoHPPD Q317H (short). How it is done:
as §1

The test system of assay [4] is Arabidopsis overexpression line SoHPPD Q317H, A318G, E345Q (short). The method, then:
as §1

The test system of assay [5] is Arabidopsis overexpression line SoHPPD_F363I (short). The method, then: as §1

With `Cc1c(C(=O)c2cnn(C)c2O)ccc(S(C)(=O)=O)c1C1=NOCC1` [Inhibitor 1, [3-(4,5-dihydroisoxazol-3-yl)-2-methyl-4-methylsulfonyl-phenyl]-(5-hydroxy-1-methyl-pyrazol-4-yl)methanone], the Tolerance factor in assay [1] is reported as 82; in assay [2], 100; in assay [3] it was 100; in assay [4], 50; in assay [5], 1000.
